Measurements reported in US20260200890A1, “ADAR1 INHIBITORS AND METHODS OF USING THE SAME” (AVAMMUNE THERAPEUTICS INC., priority 2022, published 2026).

Target: T1, ADAR1 (Homo sapiens, UniProt P55265)
T1 construct: endogenous in cells; host or cells: p110 KO A549 dual cells
T1 sequence (P55265 1-1226): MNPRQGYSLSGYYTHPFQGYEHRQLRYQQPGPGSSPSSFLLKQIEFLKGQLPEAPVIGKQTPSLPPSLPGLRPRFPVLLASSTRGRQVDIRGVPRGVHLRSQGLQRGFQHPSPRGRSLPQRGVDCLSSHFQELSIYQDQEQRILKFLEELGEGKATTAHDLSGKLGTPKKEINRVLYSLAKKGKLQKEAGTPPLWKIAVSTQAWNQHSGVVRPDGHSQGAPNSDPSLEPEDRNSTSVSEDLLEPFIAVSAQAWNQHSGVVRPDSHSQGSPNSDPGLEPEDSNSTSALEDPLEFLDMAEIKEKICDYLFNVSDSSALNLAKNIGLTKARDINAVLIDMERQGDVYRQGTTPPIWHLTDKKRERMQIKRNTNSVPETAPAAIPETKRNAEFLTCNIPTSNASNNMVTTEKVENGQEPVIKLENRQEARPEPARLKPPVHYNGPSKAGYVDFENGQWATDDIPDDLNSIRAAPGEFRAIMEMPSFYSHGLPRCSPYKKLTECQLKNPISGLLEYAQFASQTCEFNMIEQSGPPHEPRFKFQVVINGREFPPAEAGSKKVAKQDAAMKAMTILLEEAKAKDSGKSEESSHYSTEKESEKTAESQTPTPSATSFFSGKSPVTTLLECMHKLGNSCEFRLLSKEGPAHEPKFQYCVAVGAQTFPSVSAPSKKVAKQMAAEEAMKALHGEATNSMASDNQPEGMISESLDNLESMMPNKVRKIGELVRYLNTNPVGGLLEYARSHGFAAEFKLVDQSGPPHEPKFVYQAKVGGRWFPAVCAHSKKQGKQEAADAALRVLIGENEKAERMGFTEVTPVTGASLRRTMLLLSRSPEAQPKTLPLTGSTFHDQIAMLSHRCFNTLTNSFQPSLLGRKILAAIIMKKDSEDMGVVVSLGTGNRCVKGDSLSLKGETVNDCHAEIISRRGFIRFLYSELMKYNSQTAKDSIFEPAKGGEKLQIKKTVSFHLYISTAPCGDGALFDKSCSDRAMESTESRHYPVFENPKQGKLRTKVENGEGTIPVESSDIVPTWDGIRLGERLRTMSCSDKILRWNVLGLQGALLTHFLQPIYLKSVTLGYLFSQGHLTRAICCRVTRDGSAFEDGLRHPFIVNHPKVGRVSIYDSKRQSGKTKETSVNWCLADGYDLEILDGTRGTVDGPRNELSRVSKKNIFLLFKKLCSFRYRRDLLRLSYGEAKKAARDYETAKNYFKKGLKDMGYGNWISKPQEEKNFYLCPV
Experiment: ADAR1 Inhibition Assay (IFN fold-induction, Quanti-Luc luminescence, p110 KO A549 dual cells)
Type: cell-based
Conditions: IFN fold-induction vs DMSO, 24 and 48 h
Outline: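 EC50 derived from IFN fold-induction, calculated as sample RLU over average DMSO RLU. Luminescence measured by Quanti-Luc on samples taken after 24 and 48 h of compound exposure (1% DMSO final, 37 °C, 5% CO2). Cells were p110 KO A549 dual, seeded at 20,000 per well in supplemented DMEM.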

Work on `CCOC(=O)c1cc(-c2ccccc2)sc1NC(=O)COC1CCN(C(=O)c2cccc(NS(C)(=O)=O)c2)CC1` [Compound 208] yielded an EC50 greater than 100 µM.

`CS(=O)(=O)Nc1cccc(C(=O)OCC(=O)Nc2sc(-c3ccccc3)cc2C(=O)OCC(=O)O)c1` [Compound 209] showed an EC50 greater than 100 µM.

In the case of `CCOC(=O)c1cc(-c2ccccc2)ncc1NC(=O)C1CCN(C(=O)c2cccc(NS(C)(=O)=O)c2)C1` (stereo not shown) [Compound 210], the EC50 is reported as greater than 100 µM.

Work on `CCOC(=O)c1cc(-c2cccc(OC)c2)sc1NC(=O)COC(=O)c1cccc(NS(C)(=O)=O)c1` [Compound 211] yielded an EC50 greater than 100 µM.

Work on `CCOC(=O)c1cc(-c2cccc(C#N)c2)sc1NC(=O)COC(=O)c1cccc(NS(C)(=O)=O)c1` [Compound 212] yielded an EC50 greater than 100 µM.

In the case of `CCOC(=O)c1cc(-c2ccc(N(C)C)cc2)sc1NC(=O)COC(=O)c1cccc(NS(C)(=O)=O)c1` [Compound 213], the EC50 is reported as greater than 100 µM.

In the case of `CCOC(=O)c1c(-c2ccccc2)noc1NC(=O)COC(=O)c1cccc(NS(C)(=O)=O)c1` [Compound 214], the EC50 is reported as greater than 100 µM.

`CCOC(=O)c1cc(-c2ccccc2)sc1NC(=O)Cn1cnc2cnc(N)nc21` [Compound 215] gave an EC50 greater than 100 µM.

`CCOC(=O)c1cc(-c2ccccc2)sc1NC(=O)Cc1nc(-c2cccc(NS(C)(=O)=O)c2)no1` [Compound 216] showed an EC50 greater than 100 µM.

`CON(C)C(=O)c1cc(-c2ccccc2)sc1NC(=O)COC(=O)c1cccc(NS(C)(=O)=O)c1` [Compound 217] was tested, and the EC50 was greater than 100 µM.

With `CCOC(=O)c1cc(-c2ccc(O)cc2)sc1NC(=O)COC(=O)c1cccc(NS(C)(=O)=O)c1` [Compound 218] the EC50 was greater than 100 µM.

`CCOC(=O)c1cc(-c2ccccc2)sc1NC(=O)c1nnc(-c2cccc(NS(C)(=O)=O)c2)o1` [Compound 219] was tested, and the EC50 was no more than 25 µM.

Molecule `CS(=O)(=O)Nc1cccc(C(=O)OCC(=O)N2CCN(c3ccccc3)C2=S)c1` [Compound 221] has an EC50 greater than 100 µM.

For `CCOC(=O)c1cc(-c2ccccc2)sc1NC(=O)c1nnc(-c2cccc(NS(C)(=O)=O)c2)s1` [Compound 222], the EC50 was greater than 100 µM.

For `CS(=O)(=O)Nc1cccc(C(=O)OCC(=O)Nc2sc(-c3ccccc3)cc2C(=O)OCCOCc2ccccc2)c1` [Compound 223], the EC50 was greater than 100 µM.

Work on `CCOC(=O)c1cc(-c2ccccc2)sc1NC(=O)C1CN(C(=O)c2cccc(NS(C)(=O)=O)c2)CCO1` (stereo not shown) [Compound 224] yielded an EC50 greater than 100 µM.

With `CCOC(=O)c1cc(-c2ccccc2)sc1NC(=O)Cn1cnc2cnc(NS(C)(=O)=O)nc21` [Compound 225] the EC50 was greater than 100 µM.

Work on `CCOC(=O)c1cc(-c2ccc(C(=O)O)cc2)sc1NC(=O)COC(=O)c1cccc(NS(C)(=O)=O)c1` [Compound 226] yielded an EC50 greater than 100 µM.

`CCOC(=O)c1cc(-c2ccccc2)sc1NC(=O)C1CCN(S(=O)(=O)c2cccc(NS(C)(=O)=O)c2)C1` (stereo not shown) [Compound 227] showed an EC50 greater than 100 µM.

With `CCOC(=O)c1cc(-c2ccccc2)sc1NC(=O)CCOC(=O)c1cccc(NS(C)(=O)=O)c1` [Compound 229] the EC50 was greater than 100 µM.

`CCOC(=O)c1cc(C2CC2)sc1NC(=O)COC(=O)c1cccc(NS(C)(=O)=O)c1` [Compound 230] was tested, and the EC50 was greater than 100 µM.

Work on `CCOC(=O)c1cc(-c2ccccc2)sc1NC(=O)C(C)(C)Nc1cccc(NS(C)(=O)=O)c1` [Compound 231] yielded an EC50 greater than 100 µM.

Molecule `CCOC(=O)c1cc(-c2ccccc2)sc1NC(=O)CNS(=O)(=O)c1cccc(NS(C)(=O)=O)c1` [Compound 232] has an EC50 greater than 100 µM.

In the case of `CCOC(=O)c1cc(-c2ccccc2)sc1N1C(=O)N(c2cccc(NS(C)(=O)=O)c2)C(C)(C)C1=O` [Compound 233], the EC50 is reported as greater than 100 µM.

Work on `CCOC(=O)c1cc(-c2ccccc2)sc1NC(=O)CN1C(=O)c2ccc(NS(C)(=O)=O)cc2C1=O` [Compound 234] yielded an EC50 greater than 100 µM.

In the case of `CCOc1nc(NC(=O)COC(=O)c2cccc(NS(C)(=O)=O)c2)ncc1-c1ccccc1` [Compound 235], the EC50 is reported as greater than 100 µM.

Work on `CCOC(=O)c1cccc2nc(NC(=O)COC(=O)c3cccc(NS(C)(=O)=O)c3)sc12` [Compound 236] yielded an EC50 greater than 100 µM.

With `CCOC(=O)c1cc(-c2ccccc2)sc1NC(=O)CCN(C(C)=O)c1cccc(N(C(C)=O)S(C)(=O)=O)c1` [Compound 237] the EC50 was greater than 100 µM.

Work on `CCOC(=O)c1cc(-c2ccccc2)sc1NC(=O)CN1C(=O)CN(C(=O)c2cccc(NS(C)(=O)=O)c2)C1=O` [Compound 238] yielded an EC50 greater than 100 µM.

In the case of `CCOC(=O)c1cc(-c2ccccc2)sc1NC(=O)CN1C(=O)CN(S(C)(=O)=O)C1=O` [Compound 239], the EC50 is reported as greater than 100 µM.

Molecule `CCOC(=O)c1cc(-c2ccccc2)sc1NC(=O)COC(C)c1cccc(NS(C)(=O)=O)c1` (stereo not shown) [Compound 240] has an EC50 greater than 100 µM.

Molecule `CCOC(=O)c1cc(-c2ccccc2)sc1NC(=O)Cn1ncc2ccc(NS(C)(=O)=O)cc21` [Compound 242] has an EC50 greater than 100 µM.

Work on `CCOC(=O)c1c(NC(=O)COC(=O)c2cccc(NS(C)(=O)=O)c2)sc2ccccc12` [Compound 243] yielded an EC50 greater than 100 µM.

Molecule `CCOC(=O)c1cc(-c2ccccc2)sc1NC(=O)c1coc(-c2cccc(NS(C)(=O)=O)c2)n1` [Compound 244] has an EC50 greater than 100 µM.

With `CCOC(=O)c1nc(-c2ccccc2)ccc1NC(=O)COC(=O)c1cccc(NS(C)(=O)=O)c1` [Compound 245] the EC50 was greater than 100 µM.

`CCOC(=O)c1cc(-c2ccccc2)sc1NC(=O)c1cnc(-c2cccc(NS(C)(=O)=O)c2)s1` [Compound 246] gave an EC50 greater than 100 µM.

`CCOC(=O)c1cc(NC(=O)COC(=O)c2cccc(NS(C)(=O)=O)c2)sc1-c1ccccc1` [Compound 247] was tested, and the EC50 was greater than 100 µM.

Work on `CCOC(=O)c1cc(-c2ccccc2)sc1NC(=O)c1cnc(-c2cccc(NS(C)(=O)=O)c2)o1` [Compound 248] yielded an EC50 greater than 100 µM.

Molecule `CCOC(=O)c1cc(NC(=O)COC(=O)c2cccc(NS(C)(=O)=O)c2)ncc1-c1ccccc1` [Compound 249] has an EC50 greater than 100 µM.

`CCOC(=O)c1cc(-c2ccccc2)sc1NC(=O)COC(c1cccc(NS(C)(=O)=O)c1)C(F)(F)F` (stereo not shown) [Compound 250] gave an EC50 greater than 100 µM.

In the case of `CCOC(=O)c1c(NC(=O)COC(=O)c2cccc(NS(C)(=O)=O)c2)sc(-c2ccccc2)c1C(=O)OCC` [Compound 251], the EC50 is reported as greater than 100 µM.

`CCOC(=O)c1cc(-c2ccccc2)sc1NC(=O)c1cccc(-c2cccc(NS(C)(=O)=O)c2)c1` [Compound 252] was tested, and the EC50 was greater than 100 µM.

For `CCOC(=O)c1cnc(NC(=O)COC(=O)c2cccc(NS(C)(=O)=O)c2)c(-c2ccccc2)c1` [Compound 254], the EC50 was greater than 100 µM.

Molecule `CCOC(=O)c1cc(-c2ccccc2)sc1NC(=O)c1nc(-c2cccc(NS(C)(=O)=O)c2)no1` [Compound 255] has an EC50 greater than 100 µM.

With `CCOC(=O)c1cc(-c2ccccc2)sc1NC(=O)COC(=O)c1cccc(C(=O)NS(C)(=O)=O)c1` [Compound 256] the EC50 was greater than 100 µM.

In the case of `CCOC(=O)c1cc(-c2ccccc2)sc1NC(=O)COC(=O)c1cccc(NS(=O)(=O)C(F)(F)F)c1` [Compound 257], the EC50 is reported as greater than 100 µM.

`COC(=O)c1nc(-c2ccccc2)cnc1NC(=O)COC(=O)c1cccc(NS(C)(=O)=O)c1` [Compound 258] showed an EC50 greater than 100 µM.

With `CS(=O)(=O)Nc1cccc(C(=O)OCC(=O)Nc2ncc(-c3ccccc3)cc2CO)c1` [Compound 259] the EC50 was greater than 100 µM.

For `CCOC(=O)c1cc(-c2ccccc2)cnc1NC(=O)COC(=O)c1cccc(NS(C)(=O)=O)c1` [Compound 260], the EC50 was greater than 100 µM.

In the case of `CCOC(=O)c1cc(-c2ccccc2)sc1NC(=O)c1cc(-c2cccc(NS(C)(=O)=O)c2)ncn1` [Compound 261], the EC50 is reported as greater than 100 µM.

Work on `CCOC(=O)c1cc(-c2ccccc2)sc1NC(=O)NNC(=O)c1cccc(NS(C)(=O)=O)c1` [Compound 262] yielded an EC50 greater than 100 µM.

With `CCOC(=O)c1cc(NC(=O)c2ccccc2)sc1NC(=O)COC(=O)c1cccc(NS(C)(=O)=O)c1` [Compound 263] the EC50 was greater than 100 µM.

`CCOC(=O)c1cc(-c2ccccc2)sc1NC(=O)c1cncc(-c2cccc(NS(C)(=O)=O)c2)n1` [Compound 264] showed an EC50 greater than 100 µM.

Molecule `CS(=O)(=O)Nc1cccc(C(=O)OCC(=O)Nc2cc(-c3ccccc3)[nH]n2)c1` [Compound 265] has an EC50 greater than 100 µM.

`CCOC(=O)c1cc(-c2ccc(C(=O)Nc3cccc(NS(C)(=O)=O)c3)cc2)sc1NC(C)=O` [Compound 266] showed an EC50 greater than 100 µM.

`CCOC(=O)c1cc(-c2ccccc2)sc1NC(=O)Oc1ccc(NS(C)(=O)=O)cc1` [Compound 267] showed an EC50 greater than 100 µM.

Molecule `CCOC(=O)c1cc(-c2ccccc2)sc1NC(=O)c1ccc(-c2cccc(NS(C)(=O)=O)c2)o1` [Compound 268] has an EC50 greater than 100 µM.

With `CS(=O)(=O)Nc1cccc(NC(=O)c2cc(-c3ccccc3)sc2N)c1` [Compound 269] the EC50 was greater than 100 µM.
